Experimental findings from ChEMBL document CHEMBL1201862, “PubChem BioAssay data set” (2004) are described below.

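All cell lines were grown in 96-well plates and treated with compound for 48 hours. Here, GI50 denotes the concentration required for 50% inhibition of growth.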 Active and inactive are the calls of the source. No stated cut-off is given here; in the data, active = GI50 up to about 1.1 µM and inactive = higher.

Among the test systems are IGROV-1; OVCAR-3; HCT-15; SK-OV-3; 786-0; MDA-N; SN12C; OVCAR-4; T47D; HCT-116; DU-145; NCI-H23; MDA-MB-435; NCI-H522; COLO 205; OVCAR-8; SNB-19; UO-31; SR; Malme-3M.
What all share (test): NCI-60 cell line screen, 48 h

Regarding `CC(C)=CC(=O)OC1C2C(C)=CC(=O)C(O)C2(C)C2C3(O)OCC24C(CC(=O)OC14)C(C)C3O` (stereo not given), the GI50 is 0.00849 µM (active) in the test on IGROV-1; 0.00624 µM (active) with OVCAR-3; 0.0426 µM in the test on HCT-15; 0.213 µM (active) with SK-OV-3; 0.01 µM (active) with 786-0; 0.00208 µM (active) in the test on MDA-N. Besides, the GI50 with SN12C was 0.0479 µM (active); with OVCAR-4 it was 0.0135 µM (active); with T47D it was 0.00288 µM (active); in the test with HCT-116, 0.00519 µM (active); in the test with DU-145 it was 0.00354 µM (active); with NCI-H23, 0.00655 µM (active). The GI50 in the test with MDA-MB-435 is 0.003 µM (active); with NCI-H522 it was 0.00283 µM (active); in the test with COLO 205, 0.0975 µM (active); in the test on OVCAR-8, 0.017 µM (active); in the test on SNB-19, 0.00349 µM (active); in the test on UO-31, 0.203 µM (active). The GI50 in the test with SR was 0.000774 µM (active).

In the case of `COc1ccc(C2CC(c3ccccc3)=Nc3c(-c4ccccc4)nnn32)cc1` (stereo not given), the GI50 is > 100 µM (inactive) in the test with IGROV-1; 54.7 µM (inactive) in the test with OVCAR-3; 9.06 µM with HCT-15; > 100 µM (inactive) in the test on SK-OV-3; > 100 µM (inactive) in the test with 786-0; > 100 µM (inactive) in the test on MDA-N. For the same molecule, the GI50 in the test with SN12C was > 100 µM (inactive); in the test on T47D, 10 µM (inactive); in the test with HCT-116 it was 35.5 µM (inactive); in the test with DU-145 it was > 100 µM (inactive); with NCI-H23, > 100 µM (inactive); in the test with MDA-MB-435, 77.8 µM (inactive). Moreover, the GI50 in the test on NCI-H522 was 8.22 µM (inactive); with COLO 205, > 100 µM (inactive); in the test with OVCAR-8, 37.3 µM (inactive); in the test with SNB-19, > 100 µM (inactive); with UO-31, > 100 µM (inactive); with SR, 23.3 µM (inactive).

As for `O=C1C2=Cc3ccccc3OC2(O)Oc2cc3ccccc3cc21` (stereo not given), the GI50 in the test on IGROV-1 was 28.7 µM (inactive); in the test on OVCAR-3, 57.8 µM (inactive); in the test on HCT-15, over 100 µM; in the test on SK-OV-3 it was 56.5 µM (inactive); in the test on 786-0, > 100 µM (inactive); in the test on MDA-N, > 100 µM (inactive). Further, the GI50 is > 100 µM (inactive) in the test on SN12C; 49.7 µM (inactive) in the test with OVCAR-4; > 100 µM (inactive) in the test on T47D; > 100 µM (inactive) with HCT-116; > 100 µM (inactive) in the test with DU-145; > 100 µM (inactive) in the test with NCI-H23. Further, the GI50 with MDA-MB-435, in the test with COLO 205, in the test with OVCAR-8, in the test on Malme-3M and in the test on SR was > 100 µM (inactive) each time.

As for `CCOC(=O)C(=O)N/N=C1\C(=O)Nc2ccccc21`, the GI50 was > 100 µM (inactive) in the test on IGROV-1; over 100 µM with HCT-15; > 100 µM (inactive) with SK-OV-3; > 100 µM (inactive) with 786-0; > 100 µM (inactive) in the test on MDA-N; > 100 µM (inactive) in the test on SN12C. For the same molecule, the GI50 in the test on OVCAR-4, in the test on T47D, in the test with HCT-116, in the test with DU-145, in the test with NCI-H23 and in the test on MDA-MB-435 was > 100 µM (inactive) throughout. Further, the GI50 with NCI-H522, in the test on COLO 205, in the test with OVCAR-8, in the test with SNB-19, in the test on Malme-3M and in the test with UO-31 was > 100 µM (inactive) each time. Further, in the test with SR, the GI50 is > 100 µM (inactive).

As for `Cc1ccc(C(=O)N/N=C(\N=N\c2ccccc2Cl)c2ccc(N(C)C)cc2)cc1`, the GI50 in the test on IGROV-1 is > 100 µM (inactive); in the test on OVCAR-3, 30.3 µM (inactive); with HCT-15, 30.6 µM; in the test with SK-OV-3 it was 20.4 µM (inactive); with 786-0, 48.3 µM (inactive); in the test with MDA-N, 11.5 µM (inactive). The GI50 with SN12C was > 100 µM (inactive); in the test on OVCAR-4, 7.33 µM (inactive); with T47D it was 2.64 µM (inactive); in the test with HCT-116, 29.2 µM (inactive); with DU-145, 2.61 µM (inactive); in the test on NCI-H23 it was 50.7 µM (inactive). Besides, the GI50 is 10.5 µM (inactive) in the test with MDA-MB-435; 27.5 µM (inactive) with NCI-H522; 38.6 µM (inactive) in the test with COLO 205; 61.5 µM (inactive) with OVCAR-8; 28.1 µM (inactive) with SNB-19; 29.4 µM (inactive) with UO-31. The GI50 in the test with SR was 18.1 µM (inactive).

Turning to `CCOC(=O)N1CCNCCN(C(=O)OCC)CCNCC1`, the GI50 was > 100 µM (inactive) in the test with IGROV-1; > 100 µM (inactive) in the test with OVCAR-3; over 100 µM in the test on HCT-15; > 100 µM (inactive) in the test with 786-0; > 100 µM (inactive) in the test with MDA-N; > 100 µM (inactive) in the test with SN12C. Also, the GI50 in the test on OVCAR-4, in the test with T47D, in the test on HCT-116, in the test with DU-145, in the test on NCI-H23 and with MDA-MB-435 was > 100 µM (inactive) in each case. The GI50 with NCI-H522, in the test with COLO 205, in the test on OVCAR-8, in the test on SNB-19, in the test with UO-31 and in the test with SR was > 100 µM (inactive) in each case.

As to `COc1ccccc1NC1=NCC(C)S1` (stereo not given), the GI50 with IGROV-1 is > 100 µM (inactive); in the test on OVCAR-3, > 100 µM (inactive); in the test on HCT-15, over 100 µM; with SK-OV-3 it was > 100 µM (inactive); with 786-0 it was > 100 µM (inactive); in the test on MDA-N, > 100 µM (inactive). For the same molecule, the GI50 in the test with SN12C, in the test on T47D, in the test with HCT-116, in the test on DU-145, in the test on NCI-H23 and with MDA-MB-435 was > 100 µM (inactive) throughout. Moreover, the GI50 with NCI-H522, in the test with COLO 205, in the test with OVCAR-8, in the test on SNB-19, in the test on Malme-3M and in the test on UO-31 was > 100 µM (inactive) each time. Also, the GI50 in the test with SR was > 100 µM (inactive).

For the molecule `CCOC(=O)N1CCN(c2nc(C)n(-c3ccccc3)c(=S)c2C#N)CC1`, the GI50 is 32.4 µM (inactive) in the test with IGROV-1; > 75 µM (inactive) in the test with OVCAR-3; over 55.6 µM with HCT-15; > 82.2 µM (inactive) in the test with SK-OV-3; 42.8 µM (inactive) in the test with 786-0; > 50 µM (inactive) with MDA-N. Further, the GI50 in the test on SN12C is > 100 µM (inactive); in the test with OVCAR-4, 44.1 µM (inactive); in the test with T47D, > 100 µM (inactive); with HCT-116 it was > 68.2 µM (inactive); with DU-145, > 90.4 µM (inactive); in the test with NCI-H23 it was > 54 µM (inactive). Also, the GI50 was > 74.6 µM (inactive) with MDA-MB-435; > 34.9 µM (inactive) in the test on NCI-H522; > 100 µM (inactive) with COLO 205; 50.2 µM (inactive) in the test with OVCAR-8; > 78.2 µM (inactive) with SNB-19; > 48 µM (inactive) in the test with UO-31. The GI50 in the test with SR is > 100 µM (inactive).

`CC(C)=CCC[C@@H](C)C1=C(O)C(=O)C(C)=C(Nc2ccccc2)C1=O`: the GI50 in the test on IGROV-1 was 17.8 µM (inactive); with OVCAR-3 it was 9.2 µM (inactive); in the test on HCT-15 it was 7.5 µM; with SK-OV-3 it was 27.6 µM (inactive); in the test on 786-0 it was 25.3 µM (inactive); in the test with MDA-N, 28.4 µM (inactive). Moreover, the GI50 was 23.9 µM (inactive) with SN12C; 19.3 µM (inactive) with OVCAR-4; 19.9 µM (inactive) with T47D; 18.1 µM (inactive) with HCT-116; 24.2 µM (inactive) in the test on DU-145; 24.9 µM (inactive) in the test on NCI-H23. Also, the GI50 with MDA-MB-435 is 27.7 µM (inactive); with COLO 205 it was 22.6 µM (inactive); in the test with OVCAR-8, 9.18 µM (inactive); in the test with SNB-19, 31.4 µM (inactive); in the test on Malme-3M, 17.8 µM (inactive); in the test with UO-31, 14.5 µM (inactive). Besides, in the test with SR, the GI50 was 28 µM (inactive).

Take `COc1cc([N+](=O)[O-])c(S(=O)(=O)O)cc1NS(=O)(=O)c1ccc(C)cc1`: the GI50 in the test on IGROV-1 is > 100 µM (inactive); with OVCAR-3 it was > 100 µM (inactive); with HCT-15, over 100 µM; in the test on SK-OV-3 it was > 100 µM (inactive); in the test with 786-0, > 100 µM (inactive); in the test on MDA-N, > 100 µM (inactive). The GI50 in the test on SN12C, in the test on OVCAR-4, with T47D, in the test on HCT-116, in the test on DU-145 and in the test with NCI-H23 was > 100 µM (inactive) in each case. The GI50 with MDA-MB-435, with NCI-H522, in the test on COLO 205, in the test with OVCAR-8, in the test with SNB-19 and in the test with UO-31 was > 100 µM (inactive) throughout. For the same molecule, the GI50 with SR is > 100 µM (inactive).

On to `OC1(c2ccc(Cl)cc2)c2ccccc2-c2nc3ccccc3n21` (stereo not given), for which the GI50 with IGROV-1 is 73.5 µM (inactive); in the test on OVCAR-3 it was 48.4 µM (inactive); with HCT-15, over 100 µM; in the test with SK-OV-3, 49 µM (inactive); in the test with 786-0 it was 49.2 µM (inactive); in the test with MDA-N it was > 100 µM (inactive). Besides, the GI50 in the test with SN12C is > 100 µM (inactive); with OVCAR-4 it was > 100 µM (inactive); with T47D, > 100 µM (inactive); in the test with HCT-116, 90.4 µM (inactive); in the test on DU-145, 79.4 µM (inactive); with NCI-H23 it was 89.3 µM (inactive). For the same molecule, the GI50 was > 100 µM (inactive) with MDA-MB-435; 66.8 µM (inactive) in the test with NCI-H522; > 100 µM (inactive) in the test on COLO 205; 82.8 µM (inactive) in the test on OVCAR-8; 51.6 µM (inactive) in the test on SNB-19; > 100 µM (inactive) in the test with UO-31. For the same molecule, in the test on SR, the GI50 was 74.5 µM (inactive).
